These results are taken from patent US20110178016A1, “PULSE PARATHYROID HORMONE FOR TREATMENT OF THE HEM[…], STROMAL CELL LOSS, AND VASCULAR INJURY RESULTING FROM ACUTE EXPOSURE TO LETHAL RADIATION” (priority 2008, published 2011).

A short description of data set [1]: Serum PTH levels for PK analysis in non-irradiated monkeys. The following applies: non-irradiated monkeys 7801 (100 mcg/kg/d) and 7872 (50 mcg/kg/d), days 1 and 18. The data set is classed as in vivo, cynomolgus monkeys. As for the experimental part:
PTH becomes undetectable by 4-6 hours after dosing, despite extremely high doses of PTH.
Two cynomolgus monkeys (hereafter referred to as CYNOs) were treated with a 21 day course of daily subcutaneous PTH at either 100 mcg/kg (monkey 7801) or 50 mcg/kg (monkey 7872). Hematopoietic outcome measures included:
(c) serum PTH levels; and […]

In data set [2] the test system is bone marrow colony forming units / hematopoietic stem cells. In words: Bone marrow colony forming units and hematopoietic stem cell content in irradiated mice. The data set is classed as in vivo, B6 mice. The following applies: 772 cGy. As for the experimental part: In a second experiment, a sub-group of animals were euthanized on day 7, n=3 per cohort. Bone marrows were flushed and CFUs were performed.
B6 mice underwent 772 cGy irradiation and a daily total dose of 400 mcg/kg/day of PTH.
One group of animals was euthanized on day 3 (n=3) one group on day 7 (n=4) and one group (n=3) on day 28.
(§1) Bone marrow was analyzed for colony forming units (CFU) (FIGS. 9A and 9B), hematopoietic stem cell content. Serum was analyzed for PTH levels on the final day of the study to determine the duration of detectable PTH in the serum following the final dose.
Mice underwent exposure to 772 cGy radiation and were randomized to treatment of daily PTH 400 mcg/kg or saline. On days 3 (n=3) and 7 (n=4) bone marrow was analyzed for colony forming units.
Following irradiation with 772 cGy, mice underwent bone marrow analysis on days 3 (n=3) or 7 (n=4) for hematopoietic stem cell content. […] (FIG. 11)

Data set [3] can be described thus: Serum PTH levels in mice after final dose (Mesoscale). The format is in vivo. As to conditions: 400 mcg/kg PTH, final dose on day 28. As for the experimental part:
as §1

Entries after “also recorded” stand apart in the source; their conditions may differ.

Turning to `CC[C@H](C)[C@H](NC(=O)[C@H](CCC(=O)O)NC(=O)[C@H](CO)NC(=O)[C@@H](NC(=O)[C@@H](N)CO)C(C)C)C(=O)N[C@@H](CCC(N)=O)C(=O)N[C@@H](CC(C)C)C(=O)N[C@@H](CCSC)C(=O)N[C@@H](Cc1cnc[nH]1)C(=O)N[C@@H](CC(N)=O)C(=O)N[C@@H](CC(C)C)C(=O)NCC(=O)N[C@@H](CCCCN)C(=O)N[C@@H](Cc1cnc[nH]1)C(=O)N[C@@H](CC(C)C)C(=O)N[C@@H](CC(N)=O)C(=O)N[C@@H](CO)C(=O)N[C@@H](CCSC)C(=O)N[C@@H](CCC(=O)O)C(=O)N[C@@H](CCCN=C(N)N)C(=O)N[C@H](C(=O)N[C@@H](CCC(=O)O)C(=O)N[C@@H](Cc1c[nH]c2ccccc12)C(=O)N[C@@H](CC(C)C)C(=O)N[C@@H](CCCN=C(N)N)C(=O)N[C@@H](CCCCN)C(=O)N[C@@H](CCCCN)C(=O)N[C@@H](CC(C)C)C(=O)N[C@@H](CCC(N)=O)C(=O)N[C@@H](CC(=O)O)C(=O)N[C@H](C(=O)N[C@@H](Cc1cnc[nH]1)C(=O)N[C@@H](CC(N)=O)C(=O)N[C@@H](Cc1ccccc1)C(=O)O)C(C)C)C(C)C` [PTH, Teriparatide], the “time after dosing by which PTH becomes undetectable in serum” value in data set [1] fell in the range of 4 to 6 h. The “CFU capabilities of bone marrow” value in data set [2] (PTH 400 mcg/kg/day x 7 days, euthanized on day 7, n=3 per cohort, compared to other groups) is reported as “greatest preservation of CFU capabilities; also recorded: preserves CFU”. The “CFU-GM and CFU-M in bone marrow” value in data set [2] (daily PTH 400 mcg/kg vs saline, days 3 and 7) was “increased with PTH therapy”. Moreover, the “bone marrow hematopoietic stem cell content, treatment vs control” value in data set [2] (daily PTH 400 mcg/kg, day 3) was “no statistical significance”. The “increase in bone marrow stem cell content” value in data set [2] (daily PTH 400 mcg/kg, day 7) turned out to be 5 fold. Moreover, the “BFU and CFU-GEMM in bone marrow” value in data set [2] (daily PTH 400 mcg/kg, trend more pronounced on day 7) was “increased with PTH treatment”. For the same compound, in data set [3], the “PTH in sera after final PTH dose” value is reported as “some persistence of PTH at 24 hours” and the “time of return of serum PTH to baseline after final dose” value turned out to be 48 h.
